The source made the active and inactive calls.
Columns and labels:
[1] = HEp-2 cell cytotoxicity, dose response, cytotoxicity control for RSV inhibitor project, HTS (AID 2410); assay type: functional; details: human respiratory syncytial virus
Aminopeptidase N = target: T1, Aminopeptidase N (Plasmodium falciparum FcB1/Columbia, UniProt O96935); assay: P. falciparum M1AAP inhibitors, biochemical, fluorogenic H-Leu-NHMec substrate, 1536-well (AID 1445); parameters: species or system Plasmodium falciparum 3D7, 3D7
T1 sequence (O96935 whole entry): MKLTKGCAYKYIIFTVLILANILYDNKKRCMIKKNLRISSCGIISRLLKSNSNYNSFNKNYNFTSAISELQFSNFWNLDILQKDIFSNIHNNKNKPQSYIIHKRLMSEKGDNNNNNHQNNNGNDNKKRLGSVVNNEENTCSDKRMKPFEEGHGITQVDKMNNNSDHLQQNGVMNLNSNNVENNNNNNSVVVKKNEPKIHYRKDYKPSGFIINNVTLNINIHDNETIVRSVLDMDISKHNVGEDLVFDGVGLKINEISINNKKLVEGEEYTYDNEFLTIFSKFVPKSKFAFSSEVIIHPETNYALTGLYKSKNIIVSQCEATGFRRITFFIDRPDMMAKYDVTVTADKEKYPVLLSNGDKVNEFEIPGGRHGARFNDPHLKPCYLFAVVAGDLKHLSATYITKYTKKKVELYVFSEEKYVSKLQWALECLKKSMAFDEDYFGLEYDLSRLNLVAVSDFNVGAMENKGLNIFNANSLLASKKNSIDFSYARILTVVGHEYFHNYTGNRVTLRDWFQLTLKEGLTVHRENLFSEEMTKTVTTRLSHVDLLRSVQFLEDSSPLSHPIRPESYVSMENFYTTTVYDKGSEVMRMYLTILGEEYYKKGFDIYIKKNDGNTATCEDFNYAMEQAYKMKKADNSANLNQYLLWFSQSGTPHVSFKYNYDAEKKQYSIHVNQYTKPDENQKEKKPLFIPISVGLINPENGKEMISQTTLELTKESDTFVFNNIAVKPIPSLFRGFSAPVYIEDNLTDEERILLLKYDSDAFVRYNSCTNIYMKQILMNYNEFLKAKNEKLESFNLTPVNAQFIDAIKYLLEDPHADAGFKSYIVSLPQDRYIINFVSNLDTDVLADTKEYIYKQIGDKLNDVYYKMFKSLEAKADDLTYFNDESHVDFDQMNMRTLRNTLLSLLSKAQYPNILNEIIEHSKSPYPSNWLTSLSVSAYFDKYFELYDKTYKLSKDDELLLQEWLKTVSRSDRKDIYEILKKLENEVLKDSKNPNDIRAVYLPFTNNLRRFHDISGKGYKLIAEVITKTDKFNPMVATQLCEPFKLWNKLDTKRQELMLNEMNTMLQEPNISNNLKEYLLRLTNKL

[2] = target: Voltage-dependent T-type calcium channel subunit alpha-1H (Homo sapiens, UniProt O95180); assay type: functional;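 further: channel activity triggered by adding a high calcium stimulation buffer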
Chain of Voltage-dependent T-type calcium channel subunit alpha-1H (O95180 whole entry): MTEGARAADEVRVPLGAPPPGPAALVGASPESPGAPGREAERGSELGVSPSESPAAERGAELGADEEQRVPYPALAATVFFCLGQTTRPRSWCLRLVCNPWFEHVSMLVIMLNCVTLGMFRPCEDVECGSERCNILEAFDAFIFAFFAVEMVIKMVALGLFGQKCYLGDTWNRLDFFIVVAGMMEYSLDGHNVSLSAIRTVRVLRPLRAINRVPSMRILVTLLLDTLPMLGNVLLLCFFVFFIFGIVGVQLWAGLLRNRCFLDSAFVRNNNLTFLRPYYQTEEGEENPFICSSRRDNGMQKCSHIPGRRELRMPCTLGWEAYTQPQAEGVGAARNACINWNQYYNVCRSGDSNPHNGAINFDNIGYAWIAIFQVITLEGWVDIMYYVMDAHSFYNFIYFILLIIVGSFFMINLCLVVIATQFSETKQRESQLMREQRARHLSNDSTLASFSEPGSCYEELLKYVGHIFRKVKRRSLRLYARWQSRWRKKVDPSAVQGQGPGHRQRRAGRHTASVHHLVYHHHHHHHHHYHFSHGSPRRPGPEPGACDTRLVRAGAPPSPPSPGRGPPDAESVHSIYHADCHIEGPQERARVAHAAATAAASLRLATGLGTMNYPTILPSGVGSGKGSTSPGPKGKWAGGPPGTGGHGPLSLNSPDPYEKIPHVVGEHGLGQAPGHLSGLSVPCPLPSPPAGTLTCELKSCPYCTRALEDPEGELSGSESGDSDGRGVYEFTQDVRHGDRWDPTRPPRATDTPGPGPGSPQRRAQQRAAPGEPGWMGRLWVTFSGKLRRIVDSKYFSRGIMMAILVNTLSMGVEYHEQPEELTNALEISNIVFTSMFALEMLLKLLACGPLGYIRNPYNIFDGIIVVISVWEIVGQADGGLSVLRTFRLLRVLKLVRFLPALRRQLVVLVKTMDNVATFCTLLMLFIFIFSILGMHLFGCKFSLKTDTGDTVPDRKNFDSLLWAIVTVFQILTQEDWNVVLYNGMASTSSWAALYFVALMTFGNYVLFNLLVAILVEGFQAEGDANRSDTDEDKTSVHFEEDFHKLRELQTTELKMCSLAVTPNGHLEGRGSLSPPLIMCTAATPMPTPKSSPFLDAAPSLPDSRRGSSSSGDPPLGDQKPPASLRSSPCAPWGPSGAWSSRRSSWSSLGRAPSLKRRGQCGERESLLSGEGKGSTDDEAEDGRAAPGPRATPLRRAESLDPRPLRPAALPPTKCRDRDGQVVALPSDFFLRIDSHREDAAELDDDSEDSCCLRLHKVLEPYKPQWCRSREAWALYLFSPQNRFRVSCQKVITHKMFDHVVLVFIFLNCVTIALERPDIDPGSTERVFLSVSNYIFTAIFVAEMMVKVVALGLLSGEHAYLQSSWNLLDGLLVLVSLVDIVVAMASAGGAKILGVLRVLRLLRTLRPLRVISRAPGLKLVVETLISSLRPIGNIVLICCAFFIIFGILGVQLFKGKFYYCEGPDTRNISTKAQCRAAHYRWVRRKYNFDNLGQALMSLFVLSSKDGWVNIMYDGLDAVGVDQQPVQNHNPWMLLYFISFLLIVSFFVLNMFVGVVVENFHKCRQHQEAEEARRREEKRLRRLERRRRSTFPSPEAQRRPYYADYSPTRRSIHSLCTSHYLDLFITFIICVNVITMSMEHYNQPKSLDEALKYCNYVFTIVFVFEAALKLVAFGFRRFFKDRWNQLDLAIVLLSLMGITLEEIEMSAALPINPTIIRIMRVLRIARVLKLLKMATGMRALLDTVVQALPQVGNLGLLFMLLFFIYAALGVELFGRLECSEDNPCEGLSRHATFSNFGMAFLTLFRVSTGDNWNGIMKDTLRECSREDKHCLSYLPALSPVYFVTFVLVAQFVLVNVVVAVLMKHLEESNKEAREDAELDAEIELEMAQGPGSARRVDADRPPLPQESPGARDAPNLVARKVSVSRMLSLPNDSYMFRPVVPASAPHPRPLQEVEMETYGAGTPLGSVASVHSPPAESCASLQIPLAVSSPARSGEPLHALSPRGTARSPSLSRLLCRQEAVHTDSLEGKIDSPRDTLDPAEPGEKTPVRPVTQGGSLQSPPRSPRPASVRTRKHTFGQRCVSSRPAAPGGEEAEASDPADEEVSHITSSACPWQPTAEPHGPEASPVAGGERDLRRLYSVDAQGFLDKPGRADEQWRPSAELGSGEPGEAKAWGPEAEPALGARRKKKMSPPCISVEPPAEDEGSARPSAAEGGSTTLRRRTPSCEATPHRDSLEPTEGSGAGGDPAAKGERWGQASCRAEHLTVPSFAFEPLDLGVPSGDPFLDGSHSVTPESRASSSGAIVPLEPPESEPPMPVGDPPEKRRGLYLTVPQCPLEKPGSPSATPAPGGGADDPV

[3] = Luminescence Cell-Based Dose Confirmation HTS to Identify Activators of 5'UTR Stem-Loop Driven Alpha-Synuclein mRNA Translation in H4 Neuroglioblastoma Cells. [Related pubchem assays: 1829 (Project Summary), 1814 (Primary HTS)]; assay type: functional
[4] = Luminescence Cell-Based Dose Response HTS to Identify Activators of Luciferase Translation or Activity in H4 […] Cells. [Related pubchem assays: 1829 (Project Summary), 1814 (Primary HTS)]; assay type: functional
H4 = assay: Luminescence Cell-Based Dose Response HTS to Identify Activators of 5'UTR Stem-Loop Driven Prion Protein mRNA Translation in H4 Neuroglioblastoma Cells. [Related pubchem assays: 1829 (Project Summary), 1814 (Primary HTS)]; assay type: functional; details: Homo sapiens
[5] = inhibitors of intracellular T. cruzi replication, confirmation, NIH3T3 host cells, beta-gal luminescence (AID 2044); assay type: functional, cell-based;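 further: intracellular parasites grown in NIH/3T3 mouse fibroblasts as host cells; luminescent beta-galactosidase reporter signal from transgenic T. cruzi replicating inside host cells; inhibitors lower the luminescence signal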
[6] = cytotoxicity toward NIH3T3 fibroblasts, dose response, counter-screen, cell-based, ATP luminescence, mouse fibroblasts (AID 2010); assay type: functional;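 further: cells exposed to compound for about 90 hours before reading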
Coagulation factor XII = target: T2, Coagulation factor XII (Homo sapiens, UniProt P00748); assay type: functional;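 further: activated factor XIIa alpha cleaving a fluorogenic AMC peptide substrate; inhibitor potency from loss of enzyme activity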
T2 sequence (P00748 whole entry): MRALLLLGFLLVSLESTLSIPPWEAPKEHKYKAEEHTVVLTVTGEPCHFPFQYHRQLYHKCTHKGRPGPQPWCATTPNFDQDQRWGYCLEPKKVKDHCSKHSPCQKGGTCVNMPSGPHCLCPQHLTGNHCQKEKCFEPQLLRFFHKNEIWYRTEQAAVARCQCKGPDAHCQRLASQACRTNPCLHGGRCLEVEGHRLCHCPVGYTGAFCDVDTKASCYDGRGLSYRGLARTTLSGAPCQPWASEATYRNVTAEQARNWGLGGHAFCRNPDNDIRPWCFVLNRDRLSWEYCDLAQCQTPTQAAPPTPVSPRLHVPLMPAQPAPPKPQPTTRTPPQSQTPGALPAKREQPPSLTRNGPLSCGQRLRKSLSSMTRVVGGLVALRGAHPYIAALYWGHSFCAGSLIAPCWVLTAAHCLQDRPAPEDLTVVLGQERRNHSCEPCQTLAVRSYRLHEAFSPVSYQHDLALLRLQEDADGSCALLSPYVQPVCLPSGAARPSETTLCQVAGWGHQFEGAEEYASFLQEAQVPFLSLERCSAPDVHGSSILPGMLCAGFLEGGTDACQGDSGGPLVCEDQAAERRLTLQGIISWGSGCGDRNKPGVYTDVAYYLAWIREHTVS

Protein skinhead-1 = target: T3, Protein skinhead-1 (Caenorhabditis elegans, UniProt P34707); assay type: functional
T3 sequence (P34707 whole entry): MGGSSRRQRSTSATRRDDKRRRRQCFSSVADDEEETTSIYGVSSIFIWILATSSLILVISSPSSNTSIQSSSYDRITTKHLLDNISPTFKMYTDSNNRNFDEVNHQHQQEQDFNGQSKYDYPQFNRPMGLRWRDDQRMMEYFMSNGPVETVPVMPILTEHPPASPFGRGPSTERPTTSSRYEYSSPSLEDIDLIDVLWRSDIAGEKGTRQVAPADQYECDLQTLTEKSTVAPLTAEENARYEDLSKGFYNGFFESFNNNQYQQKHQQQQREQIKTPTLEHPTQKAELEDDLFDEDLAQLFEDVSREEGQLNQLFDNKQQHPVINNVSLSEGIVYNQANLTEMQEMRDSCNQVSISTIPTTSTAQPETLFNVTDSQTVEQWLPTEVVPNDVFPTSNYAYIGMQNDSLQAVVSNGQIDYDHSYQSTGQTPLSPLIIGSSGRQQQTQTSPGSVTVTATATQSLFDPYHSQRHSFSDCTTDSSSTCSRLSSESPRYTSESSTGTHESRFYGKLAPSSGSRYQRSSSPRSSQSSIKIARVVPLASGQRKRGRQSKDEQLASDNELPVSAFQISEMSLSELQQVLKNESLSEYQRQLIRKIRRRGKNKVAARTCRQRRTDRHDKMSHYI

[7] = target: Glyceraldehyde-3-phosphate dehydrogenase (Homo sapiens, UniProt P04406)
Chain of Glyceraldehyde-3-phosphate dehydrogenase (P04406 whole entry): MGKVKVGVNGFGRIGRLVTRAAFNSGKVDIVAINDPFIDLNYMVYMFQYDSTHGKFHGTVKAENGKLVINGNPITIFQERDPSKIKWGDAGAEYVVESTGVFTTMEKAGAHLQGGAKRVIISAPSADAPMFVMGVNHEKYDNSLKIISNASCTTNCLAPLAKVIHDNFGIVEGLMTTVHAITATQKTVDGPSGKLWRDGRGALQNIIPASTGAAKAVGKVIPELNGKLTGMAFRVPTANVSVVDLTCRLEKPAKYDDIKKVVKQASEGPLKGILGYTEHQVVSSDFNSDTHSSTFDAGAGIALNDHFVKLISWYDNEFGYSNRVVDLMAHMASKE

[8] = target: T4, Alkaline phosphatase, tissue-nonspecific isozyme (Homo sapiens, UniProt P05186); assay: human TNAP enzyme inhibitors, SAR follow-up, biochemical, luminescent, dose response (AID 1056)
T4 sequence (P05186 whole entry): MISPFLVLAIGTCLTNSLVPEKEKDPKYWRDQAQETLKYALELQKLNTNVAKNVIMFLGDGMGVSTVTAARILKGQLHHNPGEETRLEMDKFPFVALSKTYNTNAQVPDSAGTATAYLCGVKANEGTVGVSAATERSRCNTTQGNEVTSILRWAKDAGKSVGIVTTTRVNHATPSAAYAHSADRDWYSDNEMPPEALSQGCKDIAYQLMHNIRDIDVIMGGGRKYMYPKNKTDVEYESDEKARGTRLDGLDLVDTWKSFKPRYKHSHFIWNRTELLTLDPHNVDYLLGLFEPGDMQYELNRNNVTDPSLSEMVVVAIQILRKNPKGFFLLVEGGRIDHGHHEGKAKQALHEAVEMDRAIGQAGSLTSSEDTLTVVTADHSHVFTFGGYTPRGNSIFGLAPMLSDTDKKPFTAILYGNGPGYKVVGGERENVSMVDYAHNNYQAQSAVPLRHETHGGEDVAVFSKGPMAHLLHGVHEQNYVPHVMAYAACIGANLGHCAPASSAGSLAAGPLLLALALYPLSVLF

[9] = target: Peroxisome proliferator-activated receptor gamma/Nuclear receptor coactivator 1 (Homo sapiens, UniProt P37231); assay: (§1) TR-FRET dose response biochemical High Throughput Screening assay for agonists of the steroid receptor coactivator 1 (SRC-1) recruitment by the peroxisome proliferator-activated receptor gamma (PPAR gamma): non-selective agonists. [Related pubchem assays (depositor defined):AID1300, AID1808, AID504735, AID631]; assay type: protein assay
[10] = target: Peroxisome proliferator-activated receptor gamma/Nuclear receptor coactivator 3 (Homo sapiens, UniProt P37231); assay: as §1, with “3 (SRC-3)” for “1 (SRC-1)”, “assays: 1301 (Confirmation screen.), 1048 (Primary screen.)]” for “assays (depositor defined):AID1300, AID1808, AID504735, AID631]”; assay type: functional
[11] = target: Peroxisome proliferator-activated receptor gamma/Nuclear receptor coactivator 2 (Homo sapiens, UniProt P37231); assay: TR-FRET dose response biochemical High Throughput Screening assay for agonists of the steroid receptor coactivator 2 (SRC-2) recruitment by the peroxisome proliferator-activated receptor gamma (PPAR gamma): non-selective agonists. [Related pubchem assays: 1297, 1032 ]; assay type: functional
[12] = cytotoxicity in HEK-293T cells, dose response, cytotoxicity control for BCR NF-kB inhibitor project, luminescence, B-cell screen hits (AID 489021); assay type: functional, cell-based;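 further: HEK-293T cells carrying an NF-kB luciferase reporter; cells exposed to compound for about 14 hours before viability readout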
INS1 = assay: beta cell apoptosis inhibitors, cytokine rescue, dose response, luminescence, retest (AID 449756); assay type: functional, cell-based; details: Rattus norvegicus;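 further: cell death triggered by IL-1 beta plus TNF-alpha plus IFN-gamma mixture; protective hits raise ATP signal compared with cytokine alone wells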
[13] = target: T5, Luciferin 4-monooxygenase (Photinus pyralis, UniProt P08659); assay: Counter Screen for Luciferase-based Assay Positives. [Related pubchem assays: 620, 618, 411 ]
T5 sequence (P08659 whole entry): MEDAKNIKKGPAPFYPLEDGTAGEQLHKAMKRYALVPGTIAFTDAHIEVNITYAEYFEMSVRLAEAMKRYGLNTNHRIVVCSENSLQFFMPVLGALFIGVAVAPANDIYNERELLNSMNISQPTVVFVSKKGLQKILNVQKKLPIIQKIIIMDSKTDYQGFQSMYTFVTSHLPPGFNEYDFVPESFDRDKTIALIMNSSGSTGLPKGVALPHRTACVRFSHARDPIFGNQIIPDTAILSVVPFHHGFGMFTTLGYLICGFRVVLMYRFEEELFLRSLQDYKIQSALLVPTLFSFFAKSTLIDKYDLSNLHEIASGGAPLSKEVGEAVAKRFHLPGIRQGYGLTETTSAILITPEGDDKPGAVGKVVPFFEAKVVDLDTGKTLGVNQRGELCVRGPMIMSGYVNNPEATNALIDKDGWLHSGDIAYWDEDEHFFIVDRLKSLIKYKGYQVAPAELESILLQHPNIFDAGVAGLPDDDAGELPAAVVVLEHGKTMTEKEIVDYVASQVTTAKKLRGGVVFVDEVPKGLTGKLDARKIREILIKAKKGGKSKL

[14] = target: T5, Luciferin 4-monooxygenase; assay: firefly luciferase enzyme inhibitors, dose response, biochemical, luminescence (AID 1891)
[15] = Luminescence Cell-Based Dose Confirmation HTS to Identify Inhibitors of Platelet Dense Granule Release. [Related pubchem assays: 1663 (Primary HTS), 1678 (Summary of Project)]; assay type: functional
HT-1080 = assay: cytotoxicity in HT1080 fibrosarcoma cells, cell-based, fluorescence readout (AID 620); assay type: functional; details: Homo sapiens
Prothrombin = Prothrombin (Homo sapiens, UniProt P00734); assay: Thrombin 1536 HTS Dose Response Confirmation. [Related pubchem assays: 1046 (Thrombin 1536 HTS; hits were confirmed in this assay)]; assay type: functional
[16] = Luminescence-based cell-based high throughput dose response assay to identify activators of the DAF-12 from the parasite S. stercoralis (ssDAF-12).; assay type: functional
[17] = THP-1 cell cytotoxicity, dose response, cytotoxicity control for non-replicating M. tuberculosis project (AID 489025); assay type: functional
[18] = HepG2 cell cytotoxicity, dose response, cytotoxicity control for non-replicating M. tuberculosis project (AID 489018); assay type: functional; details: Mycobacterium tuberculosis
[19] = Vero E6 cell cytotoxicity, dose response, cytotoxicity control for non-replicating M. tuberculosis project, secondary assay (AID 492998); assay type: functional, VeroE6; details: Vero C1008

COc1ccc(/C=C2/SC(=O)N(NS(=O)(=O)c3ccccc3)C2=S)cc1OC
CC50 [1]: 31.5 µM (active)
IC50 (Aminopeptidase N): 30.5 µM (active)
IC50 (cells): 18.8 µM (active)

Cc1ccc(CCNC(=O)C[S+]([O-])Cc2nc(-c3cccc(C)c3)oc2C)cc1 (stereo unspecified)
EC50 [2]: 4.04 µM (active)

O=C(Nc1nc(-c2ccc(Cl)s2)cs1)c1cccs1
EC50 [3]: 34.3 µM (active)
EC50 [4]: 15.1 µM (active)
EC50 (H4): 5.03 µM (active)
EC50 [5]: 1.04 µM (active)
EC50 [6]: 8.5 µM (active)
IC50 (Coagulation factor XII): 23.9 µM (active)
IC50 (Protein skinhead-1): 81.2 µM (inactive)

CCOC(=O)c1[nH]nc2c1COc1ccccc1-2
IC50 [7]: > 100 µM (not active)
IC50 [8]: > 100 µM (inactive)

CN(C)C1=C(Cl)C(=O)N(c2nnc(Cc3ccccc3)[nH]2)C1=O
IC50 [7]: > 100 µM (not active)
IC50 [8]: 4.49 µM (active)

Cn1c(=O)cc(SCC(=O)Nc2ccccn2)c2ccccc21
EC50 [9]: > 79.4 µM (inactive)
EC50 [10]: > 79.4 µM (not active)
EC50 [11]: > 79.4 µM (not active)

Cc1cccc(Nc2nc(-c3ccccc3)c(C(=O)Nc3cccnc3)s2)c1
EC50 [9]: 7.34 µM (active)
EC50 [10]: > 79.4 µM (not active)
EC50 [11]: 7.24 µM (active)

COc1ccc(Nc2nnc(SC(C(=O)Nc3cc(C)ccc3C)c3ccccc3)s2)cc1 (stereo unspecified)
IC50 (Coagulation factor XII): > 50 µM (inactive)

CCN1C(=O)c2cccc3c(S(=O)(=O)NCC4CCCO4)ccc1c23 (stereo unspecified)
IC50 [12]: > 80 µM (inactive)

O=C(Nc1ccc(OCC(=O)N2CCC(Cc3ccccc3)CC2)cc1)c1ccco1
EC50 [2]: 2.36 µM (active)
AC50 (INS1): 5.93 µM (active)

Oc1cccc(-c2nc3ccccc3s2)c1
EC50 [13]: 12.4 µM (active)
EC50 [14]: 1.83 µM (active)
EC50 [15]: 22.2 µM (active)
EC50 (HT-1080): > 50 µM (not active)
IC50 (Prothrombin): > 50 µM (not active)
IC50 [16]: > 67.6 µM (inactive)

Nc1ccc(-c2cc(C(=O)O)n[nH]2)cc1
IC50 [7]: > 100 µM (not active)
IC50 [8]: 8.69 µM (active)

CCCCCCn1c(-c2ccco2)nc2oc3cc(OC)ccc3c(=O)c2c1=O
IC50 [12]: > 80 µM (inactive)

CN1CCN(c2ncnc3c2cnn3-c2ccc(Cl)cc2)CC1
EC50 [13]: 0.55 µM (active)
EC50 (HT-1080): > 50 µM (not active)

O=C(Nc1ccc(C(F)(F)F)cc1[N+](=O)[O-])O[C@H]1[C@H](Cc2ccccc2)NS(=O)(=O)[C@H]2C[C@@H]3C=C[C@]12O3
CC50 [1]: 23 µM (active)
IC50 (cells): 24.6 µM (active)

CS(=O)(=O)N(CC(=O)N/N=C/c1ccccc1C(=O)O)c1cccc(Cl)c1Cl
IC50 (Coagulation factor XII): > 50 µM (inactive)

C/C(=N\NC(=O)c1ccc(CN2CCc3ccccc3C2)cc1)c1ccccc1O
EC50 [5]: 1.06 µM (active)
EC50 [6]: 3.88 µM (active)
CC50 [17]: 15.3 µM (active)
CC50 [18]: 10.7 µM (active)
CC50 [19]: 13.9 µM (active)

O=C(/C=C\Nc1ccccn1)c1ccc(Cl)cc1
EC50 [13]: 2.45 µM (active)
EC50 (HT-1080): > 50 µM (not active)

From ChEMBL document CHEMBL1201862, “PubChem BioAssay data set” (2004)
